Entries after “also recorded” stand apart in the source; their conditions may differ. Like-named read-outs stand apart in the source and are kept apart here.
Assays:
SARS-CoV-2 = assay: microbe, parasite or virus in culture; format: cell-based; settings: for inhibition of SARS-CoV-2 by monoterpenes (in words): 72 h incubation
in vitro = settings: African green monkey
[1] = Cytotoxicity assay (MTS tetrazolium) on Vero 76 cells; settings: African green monkey
[2] = Severe acute respiratory syndrome coronavirus 2, Vero 76, 72 h, read-out: EC50 SARS-Cov2, monoterpenes, infected Vero 76 cells, 0.02 MOI, 72 h, MTT, tested 1,000–4.91 μM, mean ± SD
[3] = read-out: EC50 SARS-Cov2, monoterpenes, infected Vero 76 cells, 0.02 MOI, 72 h, MTT, tested 1,000–4.91 μM, mean ± SD
[4] = Severe acute respiratory syndrome coronavirus 2, Vero 76, 72 h, monoterpenes, infected Vero 76 cells, 0.02 MOI, 72 h, MTT, tested 1,000–4.91 μM, mean ± SD, read-out: EC50 SARS-Cov2
[5] = monoterpenes, infected Vero 76 cells, 0.02 MOI, 72 h, MTT, tested 1,000–4.91 μM, mean ± SD, read-out: EC50 SARS-Cov2

| SMILES | IC50 (in vitro) [µM] | EC50 (SARS-CoV-2; [4]) [µM] | inhibition of SARS-CoV-2 by monoterpenes (in words) (SARS-CoV-2; infected Vero 76 cells) | IC50 [1] [µM] | other results |
| --- | --- | --- | --- | --- | --- |
| Cc1coc2c1CCC(C)C2 (centres unmarked) [Menthofuran] | 506 ± 76.4 |  |  |  | EC50 (SARS-CoV-2; [2]): > 100 µM; EC50 (SARS-CoV-2; [3]): 154 ± 16.3 µM |
| Cc1ccc(C(C)C)cc1O [Carvacrol] | 455 ± 31.1 |  |  |  | EC50 (SARS-CoV-2; [2]): 86.5 ± 12.7 µM; EC50 (SARS-CoV-2; [3]): 80.2 ± 6.07 µM; EC50 (SARS-CoV-2; read-out: EC50 SARS-Cov2, monoterpenes, infected Vero 76 cells, 0.02 MOI, 72 h, MTT, tested 1,000–4.91 μM, mean ± SD, listed as carvacrol): < 100 µM |
| CC1=CCC(O)(C(C)C)CC1 (centres unmarked) [Terpinen-4-ol] |  | > 1000 | did not inhibit the SARS-CoV-2 at any significant rate; also recorded: Absence of activity | > 1000 |  |
| CC12CCC(CC1)C(C)(C)O2 [1,8-Cineol] |  | > 100 |  | > 1000 | EC50 (SARS-CoV-2; [5]): 129 ± 15 µM |
| CC(C)[C@@H]1CC[C@@H](C)CC1=O [Menthone] |  | > 1000 | did not inhibit the SARS-CoV-2 at any significant rate; also recorded: Absence of activity | > 1000 |  |
| Cc1ccc(C(C)C)cc1 [p-Cymene] |  | > 1000 | did not inhibit the SARS-CoV-2 at any significant rate; also recorded: Absence of activity | > 1000 |  |
| CC1CCC(C(C)C)C(O)C1 (centres unmarked) [Menthol] |  | > 1000 | did not inhibit the SARS-CoV-2 at any significant rate; also recorded: Absence of activity | > 1000 |  |
| CCN(CC)CCCC(C)Nc1ccnc2cc(Cl)ccc12 (centres unmarked) [Chloroquine, reference compound] | > 1000 | 7.57 ± 1.18 |  |  |  |
| CC1=CC[C@@H](C(C)(C)O)CC1 [α-Terpineol] |  | > 1000 | did not inhibit the SARS-CoV-2 at any significant rate; also recorded: Absence of activity | > 1000 |  |
| C=C(C)C1CC=C(C)C(=O)C1 (centres unmarked) [Carvone] |  | 80.2 ± 6.07 |  | > 1000 | EC50 (SARS-CoV-2; [5]): 86.5 ± 12.7 µM |
| C=CC(C)(O)CCC=C(C)C (centres unmarked) [Linalool] | > 1000 |  | did not inhibit the SARS-CoV-2 at any significant rate; also recorded: Absence of activity |  | EC50 (SARS-CoV-2; [2]): > 1000 µM |
| Cc1ccc(C(C)C)c(O)c1 [Thymol] |  |  | limited antiviral activity | 509 ± 31.5 | rate of SARS-Cov-2 inhibition (SARS-CoV-2; infected Vero 76 cells, 72 h, concentration not given): 58.54 ± 10.45% |
| CC(C)=C1CC[C@@H](C)CC1=O [Pulegone] | > 1000 |  |  |  | EC50 (SARS-CoV-2; [2]): > 100 µM; EC50 (SARS-CoV-2; [3]): 196 ± 17.1 µM |
| C=C(C)C1CC=C(C)CC1 (centres unmarked) [Limonene] |  |  |  | > 1000 | EC50 (SARS-CoV-2; Severe acute respiratory syndrome coronavirus 2, Vero 76, 72 h, read-out: EC50 SARS-Cov2): > 1000 µM |

From article PMC9108200, “Antiviral Activity of Selected Lamiaceae Essential Oils and Their Monoterpenes Against SARS-Cov-2” (Frontiers in Pharmacology, 2022)
